Here are results for 2 compounds from paper PMC3913854 (Investigational New Drugs, 2013).

Entries after “also recorded” stand apart in the source; their conditions may differ. Where only a bound is given, the exact number is not on record here.

For data set [1] the following is noted: rats; cited from earlier work.
Data set [2] relates to EGFR mutant NSCLC cell line HCC4006. The conditions noted are these: ref data on file; cited from earlier work.
Data set [3] concerns breast cancer resistance protein (BCRP). The settings on record: in vitro transport studies; Nakayama et al., unpublished data, 2012; cited from earlier work.
A short description of data set [4]: phase 1 study: CSF distribution and protein binding. The settings on record: 400 mg BID; for Css,avg,u,CSF (steady-state average unbound CSF concentration): n = 5, calculated by Eq. 1. The data set is classed as in vivo, human.
For data set [5], the system named is advanced solid tumors. Nature of the data set: phase 1 study: tumor response. Type of data set: in vivo, human. The settings on record: for clinical benefit rate: CR, PR or SD durable for > 6 cycles.
Data set [6] deals with patients with advanced cancers. The settings on record: Japanese patients, N = 26, cited from earlier work.
For data set [7] the following is noted: in vitro; Nakayama et al., unpublished data, 2012; cited from earlier work.
The subject of data set [8] is murine xenograft models. The settings on record: cited from earlier work.
Data set [9] deals with patients with advanced cancer. Nature of the data set: phase 1 dose-escalation study: safety, MTD, DLTs, adverse events. Type of data set: in vivo, human.
Data set [10] in a line: phase 1 study: plasma pharmacokinetics. The data set is classed as in vivo, human.
Data set [11] concerns mutant EGFR kinase (L858R and L861Q). The conditions noted are these: preclinical, Nakayama et al., unpublished data, 2012; cited from earlier work.
Data set [12] deals with malignant cell lines. The conditions noted are these: preclinical; cited from earlier work.
Data set [13] concerns P-glycoprotein (P-gp). The conditions noted are these: in vitro transport studies; Nakayama et al., unpublished data, 2012; cited from earlier work.
For data set [14] the following is noted: across an intact or a tumor-compromised BBB; cited from earlier work.
In data set [15] the test system is brain metastases from HER2+ breast cancer. The settings on record: monotherapy; N = 242; cited from earlier work.

By Kp is commonly meant tissue or fluid exposure divided by exposure in the circulation. As for `CC(C)(O)CC(=O)NCCn1ccc2ncnc(Nc3ccc(Oc4cccc(C(F)(F)F)c4)c(Cl)c3)c21` [TAK-285], in [1], the “BBB penetration / brain distribution” value is listed as “crosses the intact BBB; also recorded: penetrates the BBB”. The “inhibition of cell growth” value in data set [2] was “did not inhibit the growth”. In addition, the “substrate for BBB efflux transporter BCRP” value in [3] was “not a substrate”. The “Css,avg,u,CSF (steady-state average unbound CSF concentration)” value is 1.54 ng/mL in [4] (geometric mean (%CV)) and 0.51 to 4.27 ng/mL in data set [4] (range of individual values). Further, the concentration ratio (Kp) in [4] (human, CSF (unbound) / plasma (unbound), oral, Cu,CSF:Cu,p ratio, 3 to 4 h postdose day 15, n = 7, mean (%CV)) came to 0.663. Further, the clinical benefit rate is on record as 13% in data set [5] (RP2D cohort, 1 patient) and 9% in data set [5] (dose-escalation cohorts, 3 patients). Besides, the “stable disease (best response)” value in [5] (RP2D cohort, 4 of 8 patients) was determined as 50%; in [5] (dose-escalation cohorts, 9 of 33 patients), 27%. The “complete or partial response” value in data set [5] (all cohorts) is recorded as “No patient”. The tolerability result in [6] and in [9] (at the MTD/RP2D of 400 mg BID) was “generally well tolerated” throughout. In addition, the partial response in [6] (parotid cancer) is 1 patient. Also, the “maximum tolerated dose (MTD)” value in data set [6] (twice daily [BID]) is recorded as 300 mg. Moreover, in data set [7], the transcellular permeability result is “high”. In addition, the antitumor activity result in data set [8] is recorded as “has antitumor activity”. In data set [9] (all cohorts, as summarised in abstract), the dose-limiting toxicities result is “diarrhea, hypokalemia, and fatigue”. The “dose-proportionality of steady-state exposures” value in [10] (50 mg BID to 500 mg BID) is “greater than dose-proportional”. Also, the “%CV of steady-state t½” value in data set [10] (400 mg BID) came out at 11%. In addition, the “increase in geometric mean steady-state AUC0-τ” value in data set [10] (10-fold increase in dose, 50 mg BID to 500 mg BID) is listed as 29 fold. Further, the extent of accumulation entry in data set [10] (MTD of 400 mg BID) is given as “approximately 3 fold”. Also, the pharmacokinetic steady-state achieved in data set [10] (based on similar trough concentrations on days 8, 15 and 21) was no more than 8 days. Further, in data set [10] (oral, across cohorts, median), the “time of maximum (peak) plasma concentration” value is 2 to 3 h. Further, the “slope of linear regression of log (Css,avg) versus log (Dose)” value in [10] (power model, 95 % CI, 1.26–1.59) turned out to be 1.43. Further, in [10] (steady-state, MTD of 400 mg BID), the “%CV in AUC0-τ” value worked out at 58%. For the same compound, in data set [11], the “inhibition of mutant EGFR kinase activity” value was “inhibits mutant EGFR kinase activity”. Moreover, the “growth of malignant cell lines” value in data set [12] is reported as “inhibits the growth”. For the same compound, in [13], the “substrate for BBB efflux transporter P-gp” value is “not a substrate”.

As for `CS(=O)(=O)CCNCc1ccc(-c2ccc3ncnc(Nc4ccc(OCc5cccc(F)c5)c(Cl)c4)c3c2)o1` [lapatinib, N-{3-chloro-4-[(3-fluorobenzyl)oxy]phenyl}-6-[5-({[2-(methylsulfonyl)ethyl]amino}methyl)-2-furyl]-4-quinazolinamine], the “central nervous system (CNS) penetration” value in data set [14] was “negligible”. In data set [15], the clinical benefit rate is reported as 43%, the objective response rate is 6% and the “patients with ≥ 50 % reduction in CNS tumor size” value was 8%.
